Laboratory results from patent publication US20120148530A1, “Method for the treatment or prevention of virus infection using polybiguanide-based compounds” (Novaflux Biosciences, Inc., priority 2003, published 2012).

Tests used:
HeLa cells = test: HeLa cell viability, MTT, 2 hr exposure; type: cell-based
Method: HeLa cells (ATCC designation CCL-2) were maintained in Dulbecco's Modified Eagle's medium (DMEM). […] All three cell types were cultured in media supplemented with 10% fetal bovine serum (FBS), […] (0.3 mg/ml), antibiotics (penicillin, streptomycin, and kanamycin at 0.04 mg/ml each), and 0.05% sodium bicarbonate.
(§1) The experiments described below were conducted to determine the activity and cytotoxicity of short chain compounds having one or two biguanide groups. […] The efficacy determinations were made using P4R5 cells, which allow for the detection of bacterial β-galactosidase activity upon release of viral tat protein into the parent HeLa cell.

cell-free HIV-1 = test: Cell-free HIV-1 infectivity in P4R5 cells, β-galactosidase readout; type: cell-based; settings: 2 hr exposure of cells to compounds in the presence of virus
Method: as §1

P4R5 cells = test: P4R5 cell viability, MTT
Description: (§2) To build on the information provided by the monomeric biguanide data a series of polybiguanide molecules were synthesized with varied linker length as described in Example 1. In these molecules the methylene spacer arms between the biguanide functionalities (X and Y in Forumla I) have been changed.
As described above the effect of PEHMB and related compounds on P4R5 cell viability after a two-hour exposure to the compound was compared to the effects of control compounds such as N-9. […] To further evaluate the effect of this class of compound on various types of cells (in particular PEHMB P4-R5 cells, ME-180 cells (ATCC HTB-33; cervical epidermoid carcinoma), VK2/E6E7 human vaginal cell line (Fichorova et al. 1997 Biol. Reprod. 57:847-855), and human primary vaginal karatinocytes (isolated from tissues obtained from vaginal reconstructive surgery)) the compounds were incubated with the different cells for various lengths of time before assessment of cell viability.

HIV-1 IIIB [1] = test: HIV-1 IIIB viral binding/entry inhibition in P4R5 cells; type: cell-based
Method: as §2
Antiviral assays include a viral binding/entry assay in which reporter cells such as P4R5 are incubated with virus in the presence of compound for two hours at which time the drug is washed off and the cells incubated for 48 hrs before measuring the intracellular production of β-galactosidase (Ojwang et al. 1995 Antimicrobial Agents and Chemotherapy 39:2426-2435). In cell-associated virus inhibition (CAI) assays, HIV-1111B infected SUP T1 cells are pelleted to remove cell free virus and incubated with each compound for ten minutes at 37° C. before a 1:10 dilution in media and incubation with P4R5 indicator cells for 48 hours before measuring β-galactosidase activity. In cell-free virus assays HIV-1IIIB or BaL were incubated with each compound for 10 minutes at 37° C. before a 1:100 dilution in RPM! 1640, and incubated for 2 hours with P4R5 cells, and subsequent assays for viral infectivity were performed 48 hours later using the β-galactosidase method.
Select compounds were assessed for their ability to inhibit events necessary for HIV-1 binding and entry.
The same strategy was tested using PEHMB.

CXCR4 [2] = target: T1, CXCR4 (Homo sapiens, UniProt P61073); test: FACS analysis of CXCR4 on P4-R5 cells; type: cell-based; settings: BCD 0.3%
T1 construct: host or cells: P4-R5 (P4-CCR5) cells, HeLa-derived
T1 sequence (P61073 whole entry): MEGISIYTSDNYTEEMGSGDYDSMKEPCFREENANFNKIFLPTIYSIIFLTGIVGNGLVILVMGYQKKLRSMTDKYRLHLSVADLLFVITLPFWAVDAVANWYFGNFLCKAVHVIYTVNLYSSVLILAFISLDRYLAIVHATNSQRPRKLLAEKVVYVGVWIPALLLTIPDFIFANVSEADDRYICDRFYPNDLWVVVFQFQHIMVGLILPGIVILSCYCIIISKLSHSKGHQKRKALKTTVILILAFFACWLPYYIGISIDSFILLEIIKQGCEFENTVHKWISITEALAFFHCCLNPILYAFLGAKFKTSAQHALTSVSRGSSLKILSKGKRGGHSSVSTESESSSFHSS
Description: (§3) After a 2 hr exposure to PEHMB (0.1%), P4-R5 cell presentation of CXCR4 was reduced from 98% to 29% (FIG. 6).

CXCR4 [3] = target: T1, CXCR4; test: FACS analysis of CXCR4 on PM-1 cells; type: cell-based; settings: PEHMB 0.1%, BCD 0.3%, untreated 45%
Method: as §3
A similar experiment (FIG. 7) was performed using the PM-1 T lymphocyte cell line (Lusso et al. 1995 J. Virol 69:3712-3720). […] However, reductions in CD3 were not seen in response to compound exposure, indicating specificity of action with respect to PEHMB's impact on CXCR4 (data not shown).

HIV-1 IIIB [4] = test: Modified viral binding inhibition assay: pre-treatment, wash, then HIV-1 IIIB challenge; type: cell-based; settings: 0.1% or 0.01%
Method: In a modified viral binding inhibition assay (VBI) assay, HIV-1-susceptible P4R5 cells were maintained for 1 or 2 hr in the presence of PEHMB (0.1% and 0.01%) and then washed extensively before challenge with HIV-1 IIIB.
HIV-1-susceptible target cells were incubated with PEHMB (0.1%) for 2 hr, washed extensively with PBS, and subsequently challenged with HIV-1 IIIB at 0, 0.5, 1, 2, 3, and 4 hours after washing.

ME-180 cells = test: ME-180 cell viability; type: cell-based
[5] = system: Primary vaginal keratinocytes; test: Primary vaginal keratinocyte viability; type: cell-based, human
Vk2/E6E7 cells = test: Vk2/E6E7 cell viability

Molecule: [H]/N=C(/N)N/C(=N/[H])NCCc1ccccc1 [1-phenethyl biguanide]
- CC50 (%) (HeLa cells): 0.538%

Molecule: N=C(N)NC(=N)Nc1ccccc1 [1-phenyl biguanide]
- CC50 (%) (HeLa cells): 0.150%
- IC50 (%) (cell-free HIV-1): 0.522%

Molecule: OC[C@H]1O[C@@H]2O[C@H]3[C@H](O)[C@@H](O)[C@@H](O[C@H]4[C@H](O)[C@@H](O)[C@@H](O[C@H]5[C@H](O)[C@@H](O)[C@@H](O[C@H]6[C@H](O)[C@@H](O)[C@@H](O[C@H]7[C@H](O)[C@@H](O)[C@@H](O[C@H]8[C@H](O)[C@@H](O)[C@@H](O[C@H]1[C@H](O)[C@H]2O)O[C@@H]8CO)O[C@@H]7CO)O[C@@H]6CO)O[C@@H]5CO)O[C@@H]4CO)O[C@@H]3CO [BCD, β-cyclodextrin]
- cytotoxicity, FIG. 4A (P4R5 cells): non-cytotoxic
- remaining infectivity, % of mock-treated cells (HIV-1 IIIB [1]; PEHMB 0.1%, BCD 0.3%, HIV-1 strain IIIB): 27%
- effect on CXCR4 (CXCR4 [2]): no apparent effect
- CXCR4 presentation (CXCR4 [3]): 22%

Molecule: dextran sulfate
- residual antiviral activity after removal of compound (HIV-1 IIIB [4]): no residual antiviral activity

Molecule: nonoxynol-9 [N-9]
- CC50 (%) (HeLa cells): 0.007%
- IC50 (%) (cell-free HIV-1): 0.005%
- CC50 (P4R5 cells; MTT): 0.003%
- CC50 % 10 minute exposure (P4R5 cells; P4-R5 cells, 10 minute exposure): 0.2%
- CC50 % 2 hr exposure (P4R5 cells; P4-R5 cells, 2 hr exposure): 0.008%
- CC50 % 6 hr exposure (P4R5 cells; P4-R5 cells, 6 hr exposure): 0.005%
- CC50 (%) (P4R5 cells; P4R5 cell data (2 hr exposure), Table 6): 0.005%
- CC50 (%) (P4R5 cells; P4R5 cells, 2 hr exposure, MTT (Table 3)): 0.007%
- CC50 (%) (P4R5 cells; Table 5): 0.007%
- IC50 (HIV-1 IIIB [1]): 0.003%
- IC50 (%) (HIV-1 IIIB [1]; P4R5 cells, 2 hr exposure in the presence of HIV-1IIIB, Table 6): 0.005%
- IC50 (%) (HIV-1 IIIB [1]; Table 3): 0.005%
- IC50 (%) (HIV-1 IIIB [1]; Table 5): 0.005%
- CC50 % 10 minute exposure (ME-180 cells; 10 minute exposure): 0.20%
- CC50 % 2 hr exposure (ME-180 cells; 2 hr exposure): 0.008%
- CC50 % 6 hr exposure (ME-180 cells; 6 hr exposure): 0.007%
- CC50 % 2 hr exposure [5]: 0.007%
- CC50 % 10 minute exposure (Vk2/E6E7 cells; 10 minute exposure): 0.03%
- CC50 % 2 hr exposure (Vk2/E6E7 cells; 2 hr exposure): 0.006%
- CC50 % 6 hr exposure (Vk2/E6E7 cells; 6 hr exposure): 0.002%

Molecule: xyleneylene bis-biguanide
- CC50 (%) (HeLa cells): 0.385%
